Measurements published in US4977268A, “Boron dipeptide compounds” (priority 1988, dated 1990).
≈ marks a conversion by molar mass, not a printed value.

Columns and labels:
L-1210 lymphoid leukemia = assay: Cytotoxic assay, L-1210 lymphoid leukemia cell line; type: cell-based; conditions: dosage required to kill 50 percent of the tumor cells in cell culture
Text: (§2) Boron dipeptide analogs were investigated for potential antineoplastic activity in the Ehrlich ascites carcinoma in vivo screen in CF-1 mice and in cytotoxic assays involving the L-1210 lymphoid leukemia and P-388 lymphocytic leukemia cell lines. The ED50 is the effective dosage required to kill 50 percent of the tumor cells in the leukemia cell culture.

[1] = system: P-388 lymphocytic leukemia; assay: Cytotoxic assay, P-388 lymphocytic leukemia cell line; type: cell-based; conditions: dosage required to kill 50 percent of the tumor cells in cell culture
Text: as §2

[2] = system: Ehrlich ascites carcinoma; assay: Ehrlich ascites carcinoma in vivo screen; set-up: concentration or dose not given beside the values; conditions: CF-1 mice
serum cholesterol levels = assay: Antihyperlipidemic screen, serum cholesterol; type: in vivo; conditions: male CF1 mice
Method: (§1) Compounds to be tested were suspended in 1% aqueous carboxymethylcellulose and administered to male CF1 mice (25 g) intraperitoneally for 16d. On days 9 and 16, blood was obtained by tail vein bleeding, and the serum was separated by centrifugation for three minutes. The serum cholesterol levels were determined by a modification of the Liebermann-Burchard reaction [A. T. Ness, J. V. Pastewka, and A. C. Peacock, Clin. Chim. Acta, 10, 229 (1964)]. Serum triglyceride levels were determined with a commercial kit [Fisher, Hycel Triglyceride Test Kit] for a different group of animal bled on day 16.

[3] = system: Serum triglyceride levels; assay: Antihyperlipidemic screen, serum triglyceride; type: in vivo; conditions: male CF1 mice
Method: as §1

For `O=c1[nH]cc(F)c(=O)[nH]1` [5-Fluorouracil, reference compound], which “ED50 Cytotoxicity L-1210 Lymphoid Leukemia” value (L-1210 lymphoid leukemia) is on record?
Its value is 1.94 µg/mL (≈ 14.9 µM).

And the “ED50 Cytotoxicity P-388 Lymphocytic Leukemia” value [1]?
The value was 3.72 µg/mL (≈ 28.6 µM).

How did the “In Vivo % Inhibition of Ehrlich Ascites Carcinoma Growth” value (“In Vivo % Inhibition” for short) [2] turn out when `Sc1ncnc2nc[nH]c12` [6-Mercaptopurine, reference compound] was run?
Its value is 99.6%.

And the “ED50 Cytotoxicity L-1210 Lymphoid Leukemia” value (L-1210 lymphoid leukemia)?
Its value is 2.43 µg/mL (≈ 16 µM).

What about the “ED50 Cytotoxicity P-388 Lymphocytic Leukemia” value [1] of the same compound?
Its value is 4.10 µg/mL (≈ 26.9 µM).

For `Nc1ccn([C@@H]2O[C@H](CO)[C@@H](O)[C@@H]2O)c(=O)n1` [Ara C, reference compound], which “ED50 Cytotoxicity L-1210 Lymphoid Leukemia” value (L-1210 lymphoid leukemia) is on record?
Its value is 2.76 µg/mL (≈ 11.3 µM).

What about the “ED50 Cytotoxicity P-388 Lymphocytic Leukemia” value [1] of the same compound?
Its value is 4.06 µg/mL (≈ 16.7 µM).

How did the “% Inhibition Serum Cholesterol Day 9” value (serum cholesterol levels; 8 mg/kg intraperitoneally) turn out when `NC(=O)CNC(=O)[BH2-][NH3+]` [Compound 1, N-[(ammonia-boryl)carbonyl]glycine amide] was run?
The value was 21%.

And the “% Inhibition Serum Cholesterol Day 16” value (serum cholesterol levels; 8 mg/kg intraperitoneally)?
Its value is 42%.

And the “In Vivo % Inhibition” value [2]?
The value was 67%.

What about the “ED50 Cytotoxicity L-1210 Lymphoid Leukemia” value (L-1210 lymphoid leukemia) of the same compound?
The value was 1.40 µg/mL (≈ 10.7 µM).

And the “% Inhibition Serum Triglyceride Day 16” value ([3]; 8 mg/kg intraperitoneally)?
Its value is 53%.

What about the “ED50 Cytotoxicity P-388 Lymphocytic Leukemia” value [1] of the same compound?
Its value is 7.62 µg/mL (≈ 58.2 µM).

How did the “In Vivo % Inhibition” value [2] turn out when `NC(=O)C(CO)NC(=O)[BH2-][NH3+]` (stereo not drawn) [Compound 2, N-[(Ammoniaboryl)carbonyl]serine amide] was run?
The value was 52%.

What about the “ED50 Cytotoxicity L-1210 Lymphoid Leukemia” value (L-1210 lymphoid leukemia) of the same compound?
Its value is 10.6 µg/mL (≈ 65.9 µM).

And the “ED50 Cytotoxicity P-388 Lymphocytic Leukemia” value [1]?
The value was 8.73 µg/mL (≈ 54.2 µM).

How did the “In Vivo % Inhibition” value [2] turn out when `CSCCC(NC(=O)[BH2-][NH3+])C(N)=O` (stereo not drawn) [Compound 3, N-[(Ammonia-boryl)carbonyl] methionine amide] was run?
The value was 75%.

And the “ED50 Cytotoxicity L-1210 Lymphoid Leukemia” value (L-1210 lymphoid leukemia)?
Its value is 4.17 µg/mL (≈ 20.3 µM).

What about the “ED50 Cytotoxicity P-388 Lymphocytic Leukemia” value [1] of the same compound?
Its value is 8.57 µg/mL (≈ 41.8 µM).

How did the “% Inhibition Serum Cholesterol Day 9” value (serum cholesterol levels; 8 mg/kg intraperitoneally) turn out when `COC(=O)CNC(=O)[BH2-][N+](C)(C)C` [Compound 7, N-[(Trimethylamine-boryl)carbonyl]glycine methyl ester] was run?
The value was 21%.

What about the “% Inhibition Serum Cholesterol Day 16” value (serum cholesterol levels; 8 mg/kg intraperitoneally) of the same compound?
The value was 42%.

And the “% Inhibition Serum Cholesterol Day 9” value (serum cholesterol levels; 20 mg/kg intraperitoneally)?
The value was 31%.

And the “% Inhibition Serum Cholesterol Day 16” value (serum cholesterol levels; 20 mg/kg intraperitoneally)?
Its value is 52%.

What about the “In Vivo % Inhibition” value [2] of the same compound?
The value was 89%.

What about the “ED50 Cytotoxicity L-1210 Lymphoid Leukemia” value (L-1210 lymphoid leukemia) of the same compound?
Its value is 7.00 µg/mL (≈ 37.2 µM).

And the “% Inhibition Serum Triglyceride Day 16” value ([3]; 8 mg/kg intraperitoneally)?
The value was 59%.

And the “% Inhibition Serum Triglyceride Day 16” value ([3]; 20 mg/kg intraperitoneally)?
Its value is 30%.

What about the “ED50 Cytotoxicity P-388 Lymphocytic Leukemia” value [1] of the same compound?
The value was 12.11 µg/mL (≈ 64.4 µM).

Which “In Vivo % Inhibition” value [2] does the source give for `COC(=O)[C@H](CO)NC(=O)[BH2-][N+](C)(C)C` [Compound 8, N-[(Trimethylamine-boryl)carbonyl]-L-serine methyl ester] here?
Its value is 61%.

What about the “ED50 Cytotoxicity L-1210 Lymphoid Leukemia” value (L-1210 lymphoid leukemia) of the same compound?
The value was 1.98 µg/mL (≈ 9.08 µM).

And the “ED50 Cytotoxicity P-388 Lymphocytic Leukemia” value [1]?
The value was 9.21 µg/mL (≈ 42.2 µM).

`COC(=O)[C@H](CCSC)NC(=O)[BH2-][N+](C)(C)C` [Compound 9, N-[(Trimethylamine-boryl)carbonyl]-L-methionine methyl ester] was tested. Which “% Inhibition Serum Cholesterol Day 9” value (serum cholesterol levels; 20 mg/kg intraperitoneally) did it give?
Its value is 55%.

What about the “% Inhibition Serum Cholesterol Day 16” value (serum cholesterol levels; 20 mg/kg intraperitoneally) of the same compound?
Its value is 55%.

And the “In Vivo % Inhibition” value [2]?
Its value is 41%.

And the “ED50 Cytotoxicity L-1210 Lymphoid Leukemia” value (L-1210 lymphoid leukemia)?
Its value is 6.62 µg/mL (≈ 25.2 µM).

And the “% Inhibition Serum Triglyceride Day 16” value ([3]; 20 mg/kg intraperitoneally)?
The value was 23%.

What about the “ED50 Cytotoxicity P-388 Lymphocytic Leukemia” value [1] of the same compound?
The value was 12.86 µg/mL (≈ 49 µM).

`COC(=O)[C@H](Cc1ccccc1)NC(=O)[BH2-][N+](C)(C)C` [Compound 13, N-[(Trimethylamine-boryl)carbonyl]-L-phenylalanine methyl ester] was tested. Which “% Inhibition Serum Cholesterol Day 9” value (serum cholesterol levels; 20 mg/kg intraperitoneally) did it give?
Its value is 25%.

What about the “% Inhibition Serum Cholesterol Day 16” value (serum cholesterol levels; 20 mg/kg intraperitoneally) of the same compound?
The value was 48%.

What about the “In Vivo % Inhibition” value [2] of the same compound?
The value was 94%.

What about the “ED50 Cytotoxicity L-1210 Lymphoid Leukemia” value (L-1210 lymphoid leukemia) of the same compound?
Its value is 10.84 µg/mL (≈ 39 µM).

What about the “% Inhibition Serum Triglyceride Day 16” value ([3]; 20 mg/kg intraperitoneally) of the same compound?
Its value is 33%.

What about the “ED50 Cytotoxicity P-388 Lymphocytic Leukemia” value [1] of the same compound?
Its value is 8.89 µg/mL (≈ 32 µM).

How did the “In Vivo % Inhibition” value [2] turn out when `COC(=O)[C@H](C)NC(=O)[BH2-][N+](C)(C)C` [Compound 16, N-[(Trimethylamine-boryl)carbonyl]-L-alanine methyl ester] was run?
The value was 83%.

Which “In Vivo % Inhibition” value [2] does the source give for `N[C@@H](Cc1ccc(N(CCCl)CCCl)cc1)C(=O)O` [Melphalan, reference compound] here?
The value was 99%.
